Assay results from patent US20250250230A1, “HETEROCYCLIC COMPOUND” (TAKEDA PHARMACEUTICAL COMPANY LIMITED, priority 2022, published 2025).

Molecular target: T1, human orexin type 2 receptor (Homo sapiens, UniProt O43614)
T1 construct: expressed in transfected cells
T1 sequence (O43614 1-444): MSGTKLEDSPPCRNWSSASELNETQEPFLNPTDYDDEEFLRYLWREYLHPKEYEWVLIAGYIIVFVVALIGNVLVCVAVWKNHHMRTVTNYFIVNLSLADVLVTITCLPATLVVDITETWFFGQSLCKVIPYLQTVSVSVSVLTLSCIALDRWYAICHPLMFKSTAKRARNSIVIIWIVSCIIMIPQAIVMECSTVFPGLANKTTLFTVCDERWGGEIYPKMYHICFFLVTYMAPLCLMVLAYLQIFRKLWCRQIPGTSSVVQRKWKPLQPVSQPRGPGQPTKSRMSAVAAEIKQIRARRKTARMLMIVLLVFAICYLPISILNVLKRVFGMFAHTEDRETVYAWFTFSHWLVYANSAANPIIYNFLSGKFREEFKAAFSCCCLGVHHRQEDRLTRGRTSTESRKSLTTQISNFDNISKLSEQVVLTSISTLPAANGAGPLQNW
Test: Measurement of orexin type 2 receptor agonist activity (calcium fluorescence, Fluo-4 AM, FDSS)
Assay type: cell-based
Conditions: test compound 3 μM; CHO cells expressing human OX2 receptor; DMSO = 0%, orexin A (human) = 100%
Procedure, shortened: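 Agonist response scaled between vehicle (0%) and human orexin A at 10 nM final (100%), from 2-min kinetic Fluo-4 fluorescence reads. Stable hOX2R CHO-K1 clone, dye-loaded in HBSS/20 mM HEPES/0.1% BSA with 1.25 mM probenecid before compound addition.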

SMILES | OX2R agonist activity (3 μM, %)
CC[C@@H]1CN(C(=O)[C@@H]2C[C@@]2(F)c2ccccc2-c2c(F)cccc2F)[C@@H]1CNS(C)(=O)=O [Example 380, N-({(2S,3R)-1-[(1S,2S)-2-(2′,6′-difluoro[1,1′-biphenyl]-2-yl)-2-fluorocyclopropane-1-carbonyl]-3-ethylazetidin-2-yl}methyl)methanesulfonamide] | 92%
CC[C@@H]1CN(C(=O)[C@@H]2C[C@@]2(F)c2ccccc2-c2c(F)cccc2F)[C@H]1CNS(C)(=O)=O [Example 381, N-({(2R,3R)-1-[(1S,2S)-2-(2′,6′-difluoro[1,1′-biphenyl]-2-yl)-2-fluorocyclopropane-1-carbonyl]-3-ethylazetidin-2-yl}methyl)methylsulfonamide] | 90%
CCS(=O)(=O)NC[C@@H]1[C@@H](O)CN1C(=O)[C@@H]1C[C@@]1(F)c1ccccc1-c1c(F)cccc1F [Example 382, N-({(2R,3S)-1-[(1S,2S)-2-(2′,6′-difluoro[1,1′-biphenyl]-2-yl)-2-fluorocyclopropane-1-carbonyl]-3-hydroxyazetidin-2-yl}methyl)ethanesulfonamide] | 96%
CO[C@@H]1CN(C(=O)[C@@H]2C[C@@]2(F)c2ccccc2-c2c(F)cccc2F)[C@@H]1CNS(C)(=O)=O [Example 383, N-({(2R,3R)-1-[(1S,2S)-2-(2′,6′-difluoro[1,1′-biphenyl]-2-yl)-2-fluorocyclopropane-1-carbonyl]-3-methoxyazetidin-2-yl}methyl)methanesulfonamide] | 72%
CS(=O)(=O)NC[C@@H]1[C@H](CO)CN1C(=O)[C@@H]1C[C@@]1(F)c1ccccc1-c1c(F)cccc1F [Example 384, N-{[(2S,3R)-1-[(1S,2S)-2-(2′,6′-difluoro[1,1′-biphenyl]-2-yl)-2-fluorocyclopropane-1-carbonyl]-3-(hydroxymethyl)azetidin-2-yl]methyl}methanesulfonamide] | 99%
CS(=O)(=O)N[C@@H](CO)C1CCN1C(=O)[C@@H]1C[C@@]1(F)c1ccccc1-c1c(F)cccc1F (stereo partly drawn) [Example 385, N-[(1R)-1-{(2R)-1-[(1S,2S)-2-(2′,6′-difluoro[1,1′-biphenyl]-2-yl)-2-fluorocyclopropane-1-carbonyl]azetidin-2-yl}-2-hydroxyethyl]methanesulfonamide, or N-[(1R)-1-{(2S)-1-[(1S,2S)-2-(2′,6′-difluoro[1,1′-biphenyl]-2-yl)-2-fluorocyclopropane-1-carbonyl]azetidin-2-yl}-2-hydroxyethyl]methanesulfonamide] | 95%
C[C@@H]1CN(C(=O)[C@@H]2C[C@@]2(F)c2ccc(F)cc2-c2c(F)cccc2F)[C@@H]1CNS(C)(=O)=O [Example 386, N-({(2S,3R)-1-[(1S,2S)-2-fluoro-2-(2′,5,6′-trifluoro[1,1′-biphenyl]-2-yl)cyclopropane-1-carbonyl]-3-methylazetidin-2-yl}methyl)methanesulfonamide] | 98%
C[C@H](NS(=O)(=O)C1CC1)[C@@H]1CCN1C(=O)[C@@H]1C[C@@]1(F)c1ccccc1-c1c(F)cccc1F [Example 387, N-[(1S)-1-{(2S)-1-[(1S,2S)-2-(2′,6′-difluoro[1,1′-biphenyl]-2-yl)-2-fluorocyclopropane-1-carbonyl]azetidin-2-yl}ethyl]cyclopropanesulfonamide] | 99%
C[C@H](NS(=O)(=O)C1(C)CC1)[C@@H]1CCN1C(=O)[C@@H]1C[C@@]1(F)c1ccccc1-c1c(F)cccc1F [Example 388, N-[(1S)-1-{(2S)-1-[(1S,2S)-2-(2′,6′-difluoro[1,1′-biphenyl]-2-yl)-2-fluorocyclopropane-1-carbonyl]azetidin-2-yl}ethyl]-1-methylcyclopropane-1-sulfonamide] | 98%
CC(C)S(=O)(=O)N[C@@H](C)[C@@H]1CCN1C(=O)[C@@H]1C[C@@]1(F)c1ccccc1-c1c(F)cccc1F [Example 389, N-[(1S)-1-{(2S)-1-[(1S,2S)-2-(2′,6′-difluoro[1,1′-biphenyl]-2-yl)-2-fluorocyclopropane-1-carbonyl]azetidin-2-yl}ethyl]propane-2-sulfonamide] | 97%
CS(=O)(=O)NC[C@@H]1[C@H](F)CN1C(=O)[C@@H]1C[C@@]1(F)c1ccccc1-c1c(F)cccc1F [Example 390, N-({(2R,3R)-1-[(1S,2S)-2-(2′,6′-difluoro[1,1′-biphenyl]-2-yl)-2-fluorocyclopropane-1-carbonyl]-3-fluoroazetidin-2-yl}methyl)methanesulfonamide] | 98%
CS(=O)(=O)NC[C@H]1[C@H](CO)CN1C(=O)[C@@H]1C[C@@]1(F)c1ccccc1-c1c(F)cccc1F [Example 391, N-{[(2R,3R)-1-[(1S,2S)-2-(2′,6′-difluoro[1,1′-biphenyl]-2-yl)-2-fluorocyclopropane-1-carbonyl]-3-(hydroxymethyl)azetidin-2-yl]methyl}methanesulfonamide] | 97%
CC(NS(C)(=O)=O)C12CC(C1)N(C(=O)[C@@H]1C[C@@]1(F)c1ccccc1-c1c(F)cccc1F)C2 (stereo partly drawn) [Example 392, N-[(1R)-1-{2-[(1S,2S)-2-(2′,6′-difluoro[1,1′-biphenyl]-2-yl)-2-fluorocyclopropane-1-carbonyl]-2-azabicyclo[2.1.1]hexan-4-yl}ethyl]methanesulfonamide, or N-[(1S)-1-{2-[(1S,2S)-2-(2′,6′-difluoro[1,1′-biphenyl]-2-yl)-2-fluorocyclopropane-1-carbonyl]-2-azabicyclo[2.1.1]hexan-4-yl}ethyl]methanesulfonamide] | 68%
CS(=O)(=O)NC(C1CC1)[C@@H]1CCN1C(=O)[C@@H]1C[C@@]1(F)c1ccccc1-c1c(F)cccc1F (stereo partly drawn) [Example 394, N-[(R)-cyclopropyl{(2S)-1-[(1S,2S)-2-(2′,6′-difluoro[1,1′-biphenyl]-2-yl)-2-fluorocyclopropane-1-carbonyl]azetidin-2-yl}methyl]methanesulfonamide, or N-[(S)-cyclopropyl{(2S)-1-[(1S,2S)-2-(2′,6′-difluoro[1,1′-biphenyl]-2-yl)-2-fluorocyclopropane-1-carbonyl]azetidin-2-yl}methyl]methanesulfonamide] | 106%
C[C@@H]1CN(C(=O)C2CC2(F)c2c(F)cccc2-c2c(F)cccc2F)[C@@H]1CNS(C)(=O)=O (stereo partly drawn) [Example 395, N-({(2S,3R)-1-[(1R,2R)-2-fluoro-2-(2′,3,6′-trifluoro[1,1′-biphenyl]-2-yl)cyclopropane-1-carbonyl]-3-methylazetidin-2-yl}methyl)methanesulfonamide, or N-({(2S,3R)-1-[(1S,2S)-2-fluoro-2-(2′,3,6′-trifluoro[1,1′-biphenyl]-2-yl)cyclopropane-1-carbonyl]-3-methylazetidin-2-yl}methyl)methanesulfonamide] | 99%
Cc1ccc(C2(F)CC2C(=O)N2C[C@@H](C)[C@H]2CNS(C)(=O)=O)c(-c2c(F)cccc2F)c1 (stereo partly drawn) [Example 396, N-({(2S,3R)-1-[(1R,2R)-2-(2′,6′-difluoro-5-methyl[1,1′-biphenyl]-2-yl)-2-fluorocyclopropane-1-carbonyl]-3-methylazetidin-2-yl}methyl)methanesulfonamide, or N-({(2S,3R)-1-[(1S,2S)-2-(2′,6′-difluoro-5-methyl[1,1′-biphenyl]-2-yl)-2-fluorocyclopropane-1-carbonyl]-3-methylazetidin-2-yl}methyl)methanesulfonamide] | 104%
COC[C@@H]1CN(C(=O)[C@@H]2C[C@@]2(F)c2ccccc2-c2c(F)cccc2F)[C@@H]1CNS(C)(=O)=O [Example 397, N-{[(2S,3R)-1-[(1S,2S)-2-(2′,6′-difluoro[1,1′-biphenyl]-2-yl)-2-fluorocyclopropane-1-carbonyl]-3-(methoxymethyl)azetidin-2-yl]methyl}methanesulfonamide] | 84%
CS(=O)(=O)NC[C@@H]1[C@H](CF)CN1C(=O)[C@@H]1C[C@@]1(F)c1ccccc1-c1c(F)cccc1F [Example 398, N-{[(2S,3R)-1-[(1S,2S)-2-(2′,6′-difluoro[1,1′-biphenyl]-2-yl)-2-fluorocyclopropane-1-carbonyl]-3-(fluoromethyl)azetidin-2-yl]methyl}methanesulfonamide] | 97%
CS(=O)(=O)NC[C@H]1[C@H](CF)CN1C(=O)[C@@H]1C[C@@]1(F)c1ccccc1-c1c(F)cccc1F [Example 400, N-{[(2R,3R)-1-[(1S,2S)-2-(2′,6′-difluoro[1,1′-biphenyl]-2-yl)-2-fluorocyclopropane-1-carbonyl]-3-(fluoromethyl)azetidin-2-yl]methyl}methanesulfonamide] | 99%
CC(NS(C)(=O)=O)[C@@H]1[C@H](C)CN1C(=O)[C@@H]1C[C@@]1(F)c1ccccc1-c1c(F)cccc1F (stereo partly drawn) [Example 401, N-[(1R)-1-{(2S,3R)-1-[(1S,2S)-2-(2′,6′-difluoro[1,1′-biphenyl]-2-yl)-2-fluorocyclopropane-1-carbonyl]-3-methylazetidin-2-yl}ethyl]methanesulfonamide, or N-[(1S)-1-{(2S,3R)-1-[(1S,2S)-2-(2′,6′-difluoro[1,1′-biphenyl]-2-yl)-2-fluorocyclopropane-1-carbonyl]-3-methylazetidin-2-yl}ethyl]methanesulfonamide] | 79%
